“Also recorded” adds a separate entry of the source. Like-named read-outs stand apart in the source and are kept apart here.
How the values were obtained:
[1] = tested on: T. cruzi intracellular amastigotes; test: Antiamastigote assay in infected peritoneal macrophages (Giemsa, infection index); format: cell-based, Trypanosoma cruzi; details: for IC50: intracellular amastigotes in BALB/c peritoneal macrophages, 48 h, tested up to 60 μM, NA = no activity, read-out: IC50 (μM) ± SD Amastigote; for SI (selectivity index): ratio between CC50 in NCTC cells and IC50 in intracellular amastigotes
Protocol: (§1) Murine conjunctive cells (NCTC clone 929, ATCC) and rhesus monkey kidney cells (LLC-MK2, ATCC CCL 7) were maintained in RPMI-1640 supplemented with 10% fetal bovine serum (FBS) at 37 °C in 5% CO2 humidified incubator. Peritoneal macrophages were collected by washing the peritoneal cavity of BALB/c mice with RPMI-1640 medium (Sigma-Aldrich) supplemented with 10% FBS, and were maintained at 37 °C in a 5% CO2 humidified incubator. T. cruzi trypomastigotes (Y strain) were cultivated by continuous in vitro passage in LLC-MK2, in RPMI-1640 supplemented with 2% FBS at 37 °C in 5% CO2 humidified incubator. Antitrypomastigote activity was evaluated in vitro using trypomastigotes obtained from infected LLC-MK2 cell cultures. The motile trypomastigotes, spontaneously released into the supernatant, were collected by centrifugation (2100g for 10 min), washed three times with cold PBS to remove cell debris and culture medium, and finally resuspended in fresh RPMI-1640 medium.
Macrophages were seeded in 16-well chamber slides (NUNC Thermo Fisher Scientific, USA) and after 24 h infected with trypomastigotes (1:5, host cell/parasite ratio) for 2 h. Subsequently, infected cells were incubated with increasing concentrations of the compounds (up to 60 μM) for 48 h at 37 °C in 5% CO2 humidified incubator. After treatment, the cells were fixed and stained with Giemsa, and the slides were analyzed under a digital light microscope (EVOS M500, Thermo Fisher Scientific, USA). The infection index was determined by counting 200 macrophages and calculating the percentage of infected cells multiplied by the average number of amastigotes per infected macrophage. Benznidazole was used as a standard reference drug.

[2] = tested on: fibroblast cells (NCTC clone 929); test: Cytotoxic assay (MTT); format: cell-based, Murine; details: NCTC clone 929 cells, 48 h, highest tested concentration 200 μM
Protocol: as §1
(§2) Cytotoxicity was evaluated in vitro using fibroblast cells (NCTC clone 929) seeded in a 96-well plate (6 × 10^4/well). The compounds were diluted in DMSO (30 mM) and diluted in RPMI-1640 medium without phenol red compounds using serial dilution from 1.56 to–200 μM. The compounds were incubated with the cells for 48 h at 37 °C in 5% CO2 humidified incubator. The MTT assay was used for viability determination. After the final incubation period, 20 μL of MTT (5 mg/mL) was added for 4 h and the plate was kept at 37 °C in 5% CO2 humidified incubator. To solubilize the formazan, 80 μL of SDS (10% v/v) was added and the microplate was incubated for 24 h at 25 °C. The microplate was read at 570 nm in a plate spectrophotometer (Varioskan, Thermo, USA).

plants = tested on: plants; design: method as in literature; details: ref literature; cited from earlier work
Staphylococcus aureus = tested on: Staphylococcus aureus; design: method as in literature; details: ref literature; cited from earlier work
Enterococcus faecalis = tested on: Enterococcus faecalis; design: method as in literature; details: ref literature; cited from earlier work
Escherichia coli = tested on: Escherichia coli; design: method as in literature; details: ref literature; cited from earlier work
Candida albicans = tested on: Candida albicans; design: method as in literature; details: ref literature; cited from earlier work
[3] = tested on: T. cruzi trypomastigotes (Y strain); test: Antitrypomastigote assay (resazurin); format: cell-based, Trypanosoma cruzi; details: 24 h + 24 h resazurin, tested up to 150 μM, NA = no activity, read-out: IC50 (μM) ± SD Trypomastigote
Protocol: as §1
Antitrypomastigote activity was evaluated in vitro using trypomastigotes obtained from infected LLC-MK2 cell cultures. Briefly, […] (1 × 10^6 cells/well) were incubated with increasing concentrations of the test compounds (up to 150 μM) in RPMI-1640 medium supplemented with 10% fetal bovine serum, at 37 °C in a humidified atmosphere containing 5% CO2 for 24 h. After incubation, resazurin sodium salt (final concentration 44 μM) was added to each well, and the plates were further incubated for an additional 24 h under the same conditions. Resazurin is a redox-sensitive dye that is reduced by metabolically active parasites to the fluorescent compound resorufin, allowing the quantification of viable parasites.
The conversion of resazurin to resorufin was measured spectrophotometrically by reading the absorbance at 570 nm. The percentage of parasite viability was calculated relative to untreated controls. Benznidazole was used as a standard drug, and wells containing only medium served as negative controls.

Cytotoxic assay (MTT) = format: cell-based, Murine; details: mouse, NCTC clone 929 fibroblast cells, NCTC clone 929 cells, highest tested concentration 200 μM
Protocol: as §1, §2

T. cruzi = tested on: T. cruzi; design: method as in literature; details: T. cruzi treated with benznidazole; ref literature; cited from earlier work
[4] = tested on: human lung fibroblast MRC-5 cells; design: method as in PMID 29660469; details: cited from earlier work
T. cruzi trypomastigotes [5] = test: Mitochondrial membrane electric potential (JC-1, flow cytometry); format: cell-based, Trypanosoma cruzi; details: 55 μM, 1 and 2 h, JC-1, ratio BL2/BL1
Protocol: Mitochondrial membrane potential (ΔΨm) was evaluated using the JC-1 fluorescent probe, which accumulates in mitochondria in a potential-dependent manner, forming red-fluorescent aggregates in healthy cells with high ΔΨm and remaining as green-fluorescent monomers in cells with depolarized mitochondrial membranes. Trypomastigotes (2 × 10^6/well) were incubated with Csn-B (6) (55 μM) for 1 and 2 h, at 37 °C in HBSS + Glu. Carbonyl cyanide m-chlorophenyl hydrazone (CCCP) 100 μM was used as a positive control. After this period, parasites were washed in HBSS + Glu and resuspended with JC-1 dye (10 μM) in the dark for 10 min at 37 °C. Parasites were analyzed by flow cytometry (Attune NxT Flow Cytometer; Thermo Fisher Scientific, USA). ,
(§3) 3 Evaluation of mitochondrial membrane electric potential (ΔΨm) and ATP levels. T. cruzi trypomastigotes were incubated for 1 or 2 h with Cytosporone B (6) (55 μM). (A) ΔΨm was investigated with JC-1 dye by flow cytometry and reported as the ratio between the emission channels BL2/BL1. (B) ATP concentration was measured by luciferin/luciferase luminescent kit in a plate reader luminometer. In both analyses, untreated and treated […] with CCCP were used to achieve minimal and maximal depolarization, respectively. A representative experiment is shown. ***p < 0.005 and **p < 0.05.

T. cruzi trypomastigotes [6] = test: ATP levels (luciferin/luciferase); format: cell-based, Trypanosoma cruzi; details: 55 μM, 1 and 2 h
Protocol: Intracellular ATP levels were measured using the ATP Determination Kit (Molecular Probes, Thermo Fisher Scientific, USA), based on the luciferin–luciferase bioluminescence reaction, in which the emitted light intensity is directly proportional to the ATP concentration present in the sample. Trypomastigotes (2 × 10^6/well) were treated with Csn-B (6) (55 μM) for 1 and 2 h. Carbonyl cyanide m-chlorophenyl hydrazone (CCCP) 100 μM was used as a positive control. After treatment, trypomastigotes were lysed using HBSS + Glu with 0.5% Triton X-100 and mixed with a standard reaction buffer (ATP Determination kit, Molecular Probes, USA) containing DTT (1 mM), luciferin (0.5 mM), and firefly luciferase (1.25 μg/mL). ,
as §3

bacteria = tested on: bacteria; design: method as in literature; details: ref literature; cited from earlier work
Nur77 = tested on: Nur77; design: method as in PMID 18690216; details: cited from earlier work
[7] = Trypanosoma cruzi, Peritoneal macrophage, in Mus musculus

In the case of `CCCCCCCC(=O)c1c(O)cc(O)cc1CC(=O)O` [Compound 5, Cytosporone A], the IC50 [1] is listed as 29.9 ± 0.5 µM, the CC50 [2] is listed as over 200 µM and the “inhibition for germination and growth of plants” value (plants) is listed as “inhibition”. The antimicrobial activity (Staphylococcus aureus) was “antimicrobial activity”, the antimicrobial activity (Enterococcus faecalis) was “antimicrobial activity” and the antimicrobial activity (Escherichia coli) was “antimicrobial activity”. The antimicrobial activity (Candida albicans) was “antimicrobial activity”.

With `COC(=O)Cc1cc(O)cc(O)c1C(=O)CCCCCC(C)=O` [Compound 3, Dothiorelone P] the CC50 [2] was over 200 µM.

In the case of `O=C(Cn1ccnc1[N+](=O)[O-])NCc1ccccc1` [Benznidazole, reference compound], the IC50 ([3]; Trypanosoma cruzi) is reported as 17.7 ± 1.9 µM, the IC50 [1, 7] is reported as 5 ± 1.5 µM and the “SI (selectivity index)” value [1] is reported as 38.1. For the same molecule, the CC50 at 48 h (Cytotoxic assay (MTT)) was 191 ± 13.4 µM, the mitochondrial membrane potential (T. cruzi) was “depolarization” and the respiratory chain (T. cruzi) was “respiratory chain inhibition”.

For Dothiorelone Q [Compound 4], the IC50 [1] is listed as 43 ± 9 µM, the CC50 [2] is listed as over 200 µM and the “inhibition of TFG-β induced activation of MRC-5 cells” value [4] is listed as “inhibition”.

`C=C1[C@@H](C)[C@H]2[C@H](Cc3ccccc3)NC(=O)[C@]23[C@H](OC(C)=O)/C=C/[C@](C)(O)C[C@@H](C)C/C=C/[C@H]3[C@@H]1O` [Compound 7, Cytochalasin H] showed an IC50 [3] of 47.9 ± 6.3 µM and a CC50 [2] of over 200 µM.

For Dothiorelone B [Compound 2], the CC50 [2] was over 200 µM.

Work on `CCCCCCCC(=O)c1c(O)cc(O)cc1CC(=O)OCC` [Compound 6, Cytosporone B] yielded an IC50 ([3]; Trypanosoma cruzi) of 36.5 ± 1.9 µM, an IC50 [1, 7] of under 10 µM and an IC50 [1] of 9.1 ± 3.2 µM. The “SI (selectivity index)” value [1] was over 22.0, the CC50 at 48 h (Cytotoxic assay (MTT)) was over 200 µM and the “mitochondrial membrane electric potential (ΔΨm)” value (T. cruzi trypomastigotes [5]) was “depolarization of the membrane”. The “mitochondrial membrane electric potential (ΔΨm)” value (T. cruzi trypomastigotes [5]; listed as Csn-B) was “depolarization of the mitochondrial membrane potential; also recorded: significant depolarization”, the ATP levels (T. cruzi trypomastigotes [6]) was “ATP decrease” and the ATP levels (T. cruzi trypomastigotes [6]; listed as Csn-B) was “decrease in the ATP levels; also recorded: significant decrease in ATP levels; also recorded: significant reduction in intracellular ATP levels”. For the same molecule, the antibacterial activity (bacteria) was “potent antibacterial activity”, the antimicrobial activity (Staphylococcus aureus) was “antimicrobial activity” and the antimicrobial activity (Enterococcus faecalis) was “antimicrobial activity”. For the same molecule, the antimicrobial activity (Escherichia coli) was “antimicrobial activity”, the antimicrobial activity (Candida albicans) was “antimicrobial activity” and the “action on Nur77 nuclear receptor” value (Nur77) was “agonist”.

Work on Dothiorelone A [Compound 1] yielded a CC50 [2] of over 200 µM.

Source: publication PMC12750222, “Cytosporone B Affects ATP Production of Trypanosoma cruzi: A Lethal Action Investigation” (ACS Omega, 2025)
